Test results as given in patent US20240239786A1, “COMPOSITIONS AND METHODS FOR THE TREATMENT AND PREVENTION OF CANCER” (Yale University, priority 2021, published 2024).

Experiments:
SKOV3 xenografts = test: Subcutaneous growth of SKOV3 xenografts; format: in vivo, NCG mice; conditions: i.p., 4 weeks; olaparib 50 mg/kg qd, DB4 10 mg/kg q2d
Protocol: SCID-Beige mice implanted ip with PEO4ip cells were treated daily (qd) with DB4 (10 mg/kg), olaparib (50 mg/kg), and the DB4-olaparib combination for 4 weeks. Kaplan Meier analysis was performed to determine the survival time of mice following treatments. Statistical significance was determined by the Mantel-Cox test comparing the control with each treatment group (N=4-5). […] DB4 given every two days (q2d) in the DB4-olaparib combination for 4 or 6 weeks (n=4-5). […] NOD CRISPR Prkdc Il2r Gamma (NCG) mice implanted sc with SKOV3 cells were treated as described in FIG. 10C for 4 weeks during which the tumor size was measured. Statistical significance was determined by the Wilcoxon matched-pairs signed test comparing the control with each treatment group and comparing between treatment groups. […]
The efficacy of the combination of DB4 and olaparib to treat SKOV3 tumor xenografts, as determined by the tumor size, was ascertained in a subcutaneous (s.c.) mouse model (Ratner E S et al., 2016, Br J Cancer, 114:777-786; Lin Z P et al., 2018, PLOS One, 13:e0207399). […]
The progression of PEO4ip tumor xenografts in mice was evaluated by measuring the size of the circumference at the lower one-third of the abdominal area with the mouse head positioned upward. […] The growth of SKOV3 tumor xenografts was evaluated by the size of s.c. tumor using a digital caliper. […]

Rad51 foci = test: Nuclear Rad51 foci by confocal microscopy in SKOV3 cells; format: cell-based; conditions: for Rad51 foci, single agent: 30 μM DB4 or 25 μM olaparib
Text: Cells were transfected with the ISceI-expressing plasmid and then treated various concentrations of DB4 for 48 hr. Cells were harvested, stained with 7-AAD, and analyzed by flow cytometry for GFP-positive cells indicative of HR repair activity. […] Cells were transfected with the ISceI-expressing plasmid and treated with various concentrations of DB4. Cells were harvested, stained with 7-AAD, and stained, and analyzed by flow cytometry for GFP-positive cells indicative of NHEJ activity. Data are means±SD (N=3). *, p<0.05; **, p<0.01, compared with the 0 μM control of ISceI-transected cells. FIG. 7C depicts representative results of confocal imaging of olaparib-induced nuclear Rad51 foci in SKOV3 cells treated DB4. Cells were treated with 30 μM DB4 for 1 hr and then treated with 25 μM olaparib or 6 hr. Cells were fixed, permeabilized, and stained with the anti-Rad51 antibody and the Alexa Fluor 488-conjugated secondary antibody. Nuclei were counterstained with DAPI. Immunofluorescence of Rad51 foci and nuclei were visualized by confocal microscopy. […] Cells were also scored for nuclei containing equal or more than 10 distinct Rad51 foci to determine the percentage of cells positive for Rad51 foci. Data are means±SD (N=10). p<0.001, compared between indicated treatment groups. […] Cells were pre-treated with 30 μM DB4 and then treated with 25 μM olaparib for 24 hr. Protein was assessed by western blot analysis for the levels of γH2AX, p-H1, cyclin A2, p-CDK1/2, and HSC70. Cropped gel images of protein bands are presented. Full-length gel images are shown in FIG. 15. p-H1, cyclin A2, p-CDK1/2, and HSC70 bands were from re-probing the same blot. The γH2AX band was from a duplicated blot. […] The band density of γH2AX indicative of DSBs was quantified by densitometry. […]
To interrogate whether DB4 inhibited PARP inhibitor-induced DSB repair, nuclear Rad51 foci were determined in SKOV3 cells. […]
SKOV3 cells were grown for 24 hr prior to drug treatment. […] Nuclei containing equal or more than 10 Rad51 foci were counted to determine % Rad51-positive cells.

`C=CCn1c(SCc2cccc(Cl)c2)nnc1C1CCN(Cc2nc3ccccc3s2)CC1` [DB4, 2-[(4-{4-allyl-5-[(3-chlorobenzyl)thio]-4H-1,2,4-triazol-3-yl}-1-piperidinyl)methyl]-1,3-benzothiazole] was tested, and the “inhibition of subcutaneous growth of SKOV3 xenografts (tumor size)” value (SKOV3 xenografts) was “moderately but significantly inhibited”, the “olaparib-induced Rad51 foci” value (Rad51 foci; 30 μM DB4 1 hr then 25 μM olaparib) was “significantly attenuated” and the “Rad51 foci, single agent” value (Rad51 foci) was “had no effects on Rad51 foci”.
For `O=C(c1cc(Cc2n[nH]c(=O)c3ccccc23)ccc1F)N1CCN(C(=O)C2CC2)CC1` [olaparib, reference compound], the “inhibition of subcutaneous growth of SKOV3 xenografts (tumor size)” value (SKOV3 xenografts) was “moderately but significantly inhibited” and the “Rad51 foci, single agent” value (Rad51 foci) was “induced a pronounced increase in Rad51 foci”.
